What follows are molecules tested against mitochondrial RNA-polymerase (POLRMT) (Mus musculus, UniProt Q8BKF1) (assay: Homogeneous TR-FRET assay for mitochondrial transcription activity). Conditions: homogeneous TR-FRET assay according to Example 4; activity class.
Type: biochemical
Source text: The TR-FRET assay was basically conducted as described in WO2016/193,231A1, especially as described in example 1 (hereby incorporated by reference). With respect to the background of the mitochondrial transcription it is referred to Falkenberg et al. (2002) and Posse et al. (Posse et al., 2015). The method monitors the activity of mitochondrial RNA-polymerase via detection of the formation of its product, a 407 bp long RNA sequence. Detection of the product is facilitated by hybridization of two DNA-oligonucleotide probes to specific and adjacent sequences within the RNA product sequence. Upon annealing of the probes, two fluorophores that are coupled directly to an acceptor nucleotide probe (ATT0647, 5′) or introduced via a coupled streptavidin interacting with a biotinylated donor nucleotide probe on the other side (Europium cryptate, 3′) are brought into sufficient proximity to serve as a fluorescence-donor-acceptor pair as generally described in Walters and Namchuk (2003). Thus, a FRET signal at 665 nm is generated upon excitation at 340 nm.
Briefly, the protocol described here was applied for screening and activity determination in a low-volume 384-well microtiter plate with non-binding surface. For high-throughput application in the 1536-well microtiter plate format, volumes of the reagent mixes were adjusted, maintaining the volumetric ratio. Proteins POLRMT (NM_172551.3), TFAM (NM_009360.4) and TFB2 M (NM_008249.4) were diluted from their stocks to working concentrations of 150 nM, 1.8 μM and 330 nM respectively, in a dilution buffer containing 100 mM Tris-HCl pH 8.0, 200 mM NaCl, 10% (v/v) glycerole, 2 mM glutathione (GSH), 0.5 mM EDTA and 0.1 mg/mL BSA. Protein dilutions and template DNA, comprising a pUC18 plasmid encoding the mitochondrial light strand promoter, restriction linearized proximal to the promoter 3′-end (pUC-LSP), were mixed at the twofold final assay-concentration in a reaction buffer, containing 10 mM Tris-HCl pH 7.5, 10 mM MgCl2, 40 mM NaCl, 2 mM GSH, 0.01% (w/v) Tween-20 and 0.1 mg/mL BSA.
5 μL of this mix were dispensed, depending on the chosen microtiter plate format, using multi-channel pipettes or a Multidrop® dispenser (Thermo Fisher Scientific, Waltham Mass.) into the wells of a microtiter plate and incubated at room temperature (RT) for 10 min. Chemical compounds under scrutiny in the assay were applied using contact-free acoustic droplet-dispensing (Echo520® Labcyte Inc., Sunnyvale Calif.) from 10 mM compound stocks in 100% DMSO, to a final concentration of 10 μM or in serial dilution series of the required concentration range. Equal amounts of DMSO without any compound were added to positive control samples, followed by an incubation step at RT for 10 min.
The enzymatic reaction was started by the addition of 5 μL of a mix of […] in reaction buffer to a final concentration of 500 μM each. No nucleotide mix was added to negative control samples. The content of the wells was mixed using a VarioTeleshaker™ (Thermo Fisher Scientific, Waltham Mass.) at 1,500 rpm for 45 sec after which the microtiter plate was centrifuged at 500×g for 1 min. The samples were incubated for 2 h at RT with humidity control to avoid evaporation. The detection reagents were prepared in a buffer that was composed, such that the enzymatic reaction was terminated due to chelating of Mg-ions and increased ionic strength, containing 50 mM Tris-HCl pH 7.5, 700 mM NaCl, 20 mM EDTA, and 0.01% (w/v) Tween-20. Importantly Eu-cryptate-coupled streptavidin had to be pre-incubated with a 100-fold molar excess of a random sequence oligonucleotide for 10 min at RT in the dark to block unspecific binding of single stranded RNA to the protein. Subsequently, the blocked streptavidin(—Eu) was mixed with the DNA-probes on ice and kept away from light until use. […]

Chain of mitochondrial RNA-polymerase (POLRMT) (Q8BKF1 42-1207): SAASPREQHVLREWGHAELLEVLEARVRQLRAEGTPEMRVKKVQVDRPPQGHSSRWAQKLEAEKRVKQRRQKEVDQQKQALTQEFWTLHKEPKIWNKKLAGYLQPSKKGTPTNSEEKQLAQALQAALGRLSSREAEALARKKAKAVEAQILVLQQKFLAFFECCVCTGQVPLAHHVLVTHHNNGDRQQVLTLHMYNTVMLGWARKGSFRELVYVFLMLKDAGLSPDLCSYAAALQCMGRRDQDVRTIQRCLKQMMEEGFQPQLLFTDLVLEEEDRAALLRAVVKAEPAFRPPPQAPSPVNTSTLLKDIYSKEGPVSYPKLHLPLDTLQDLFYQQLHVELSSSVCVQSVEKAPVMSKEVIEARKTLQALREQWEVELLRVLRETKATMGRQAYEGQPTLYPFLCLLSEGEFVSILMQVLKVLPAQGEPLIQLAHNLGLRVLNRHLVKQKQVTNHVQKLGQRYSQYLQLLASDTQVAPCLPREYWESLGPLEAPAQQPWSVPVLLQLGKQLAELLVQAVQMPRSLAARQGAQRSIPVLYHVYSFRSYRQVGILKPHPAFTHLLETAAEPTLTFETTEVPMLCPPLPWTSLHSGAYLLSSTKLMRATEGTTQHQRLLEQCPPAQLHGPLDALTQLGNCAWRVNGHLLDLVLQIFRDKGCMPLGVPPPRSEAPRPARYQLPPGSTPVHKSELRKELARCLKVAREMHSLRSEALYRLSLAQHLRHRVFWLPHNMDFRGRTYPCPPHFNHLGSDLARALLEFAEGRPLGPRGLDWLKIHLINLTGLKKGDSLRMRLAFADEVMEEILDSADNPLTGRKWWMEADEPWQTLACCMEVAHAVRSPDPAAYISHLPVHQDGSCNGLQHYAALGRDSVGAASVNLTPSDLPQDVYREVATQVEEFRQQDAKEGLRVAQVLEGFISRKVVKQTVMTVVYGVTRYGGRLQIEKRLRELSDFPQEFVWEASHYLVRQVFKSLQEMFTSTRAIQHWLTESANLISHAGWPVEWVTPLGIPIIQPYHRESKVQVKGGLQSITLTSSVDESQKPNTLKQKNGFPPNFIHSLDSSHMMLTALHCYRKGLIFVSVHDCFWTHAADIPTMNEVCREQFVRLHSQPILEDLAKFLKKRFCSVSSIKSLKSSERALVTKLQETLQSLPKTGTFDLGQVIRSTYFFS

`CC(Oc1ccc2c(-c3ccccc3Cl)cc(=O)oc2c1)C(=O)O` (stereo not drawn) [Compound 96, 2-[4-(2-chlorophenyl)-2-oxo-chromen-7-yl]oxypropanoic acid] and `Cc1ccccc1-c1cc(=O)oc2cc(OC(C)C(=O)O)ccc12` (stereo not drawn) [Compound 97, 2-[4-(o-tolyl)-2-oxo-chromen-7-yl]oxypropanoic acid] fall in the same range of IC50: 100 to 1000 nM for the first, 100 to 1000 nM for the second.

Compared with `CC(Oc1ccc2c(-c3ccc(F)cc3Cl)cc(=O)oc2c1)C(=O)O` (stereo not drawn) [Compound 99, 2-((4-(2-chloro-4-fluorophenyl)-2-oxo-2H-chromen-7-yl)oxy)propanoic acid], `C[C@@H](Oc1ccc2c(-c3ccc(F)cc3Cl)cc(=O)oc2c1)C(=O)N1CCC[C@@H](C(=O)O)C1` [Compound 108, (3R)-1-[(2R)-2-[4-(2-chloro-4-fluoro-phenyl)-2-oxo-chromen-7-yl]oxypropanoyl]piperidine-3-carboxylic acid] is lower in IC50: 100 to 1000 nM for the first, under 20 nM for the second.

`COC(=O)C[C@@H]1CCCN(C(=O)[C@@H](C)Oc2ccc3c(-c4ccccc4Cl)cc(=O)oc3c2)C1` [Compound 100, methyl 2-[(3S)-1-[(2R)-2-[4-(2-chlorophenyl)-2-oxo-chromen-7-yl]oxypropanoyl]-3-piperidyl]acetate] and `COC(=O)C[C@H]1CCCN(C(=O)[C@@H](C)Oc2ccc3c(-c4ccccc4Cl)cc(=O)oc3c2)C1` [Compound 101, methyl 2-[(3R)-1-[(2R)-2-[4-(2-chlorophenyl)-2-oxo-chromen-7-yl]oxypropanoyl]-3-piperidyl]acetate] cannot be ordered by IC50: under 20 nM for the first, under 20 nM for the second.

`C[C@@H](Oc1ccc2c(-c3ccccc3Cl)cc(=O)oc2c1)C(=O)N1CCC[C@@H](CC(=O)O)C1` [Compound 102, 2-[(3S)-1-[(2R)-2-[4-(2-chlorophenyl)-2-oxo-chromen-7-yl]oxypropanoyl]-3-piperidyl]acetic acid] and `C[C@@H](Oc1ccc2c(-c3ccccc3Cl)cc(=O)oc2c1)C(=O)N1CCC[C@H](CC(=O)O)C1` [Compound 103, 2-[(3R)-1-[(2R)-2-[4-(2-chlorophenyl)-2-oxo-chromen-7-yl]oxypropanoyl]-3-piperidyl]acetic acid] cannot be ordered by IC50: under 20 nM for the first, under 20 nM for the second.

First: CCOC(=O)[C@H]1CCCN(C(=O)C(CC)Oc2ccc3c(-c4ccccc4Cl)cc(=O)oc3c2)C1 (stereo partly drawn) [Compound 109, ethyl (3S)-1-[2-[4-(2-chlorophenyl)-2-oxo-chromen-7-yl]oxybutanoyl]piperidine-3-carboxylate]
Second: C[C@@H](Oc1ccc2c(-c3ccc(F)cc3Cl)cc(=O)oc2c1)C(=O)N1CCC[C@H](C(N)=O)C1 [Compound 132, (3S)-1-[(2R)-2-[4-(2-chloro-4-fluoro-phenyl)-2-oxo-chromen-7-yl]oxypropanoyl]piperidine-3-carboxamide]
The IC50 of the first is higher: 20 to 100 nM for the first, under 20 nM for the second.

`CC(C)(Oc1ccc2c(-c3ccccc3Cl)cc(=O)oc2c1)C(=O)O` [Compound 112, 2-[4-(2-chlorophenyl)-2-oxo-chromen-7-yl]oxy-2-methyl-propanoic acid] and `CCOC(=O)C(C)(C)Oc1ccc2c(-c3ccccc3Cl)cc(=O)oc2c1` [Compound 113, ethyl 2-[4-(2-chlorophenyl)-2-oxo-chromen-7-yl]oxy-2-methyl-propanoate] fall in the same range of IC50: 100 to 1000 nM for the first, 100 to 1000 nM for the second.

Compared with `COC(=O)C1CCN(C(=O)[C@@H](C)Oc2ccc3c(-c4ccc(F)cc4Cl)cc(=O)oc3c2)CC1` [Compound 129, methyl 1-[(2R)-2-[4-(2-chloro-4-fluoro-phenyl)-2-oxo-chromen-7-yl]oxypropanoyl]piperidine-4-carboxylate], `C[C@@H](Oc1ccc2c(-c3ccc(F)cc3Cl)cc(=O)oc2c1)C(=O)N1CCC(C(=O)O)CC1` [Compound 131, 1-[(2R)-2-[4-(2-chloro-4-fluoro-phenyl)-2-oxo-chromen-7-yl]oxypropanoyl]piperidine-4-carboxylic acid] is higher in IC50: under 20 nM for the first, 20 to 100 nM for the second. The first is the more potent here.

`C[C@@H](Oc1ccc2c(-c3ccc(F)cc3Cl)cc(=O)oc2c1)C(=O)Nc1ccc(CO)cc1` [Compound 130, (2R)-2-[4-(2-chloro-4-fluoro-phenyl)-2-oxo-chromen-7-yl]oxy-N-[4-(hydroxymethyl)phenyl]propanamide] showed an IC50 of under 20 nM.
